Assay [1] addresses T1, Bcl-2-like protein 1 (Homo sapiens, UniProt Q07817). Briefly: Binding affinity to 6xHis-tagged human Bcl-xL.
Assay [2] has as its target T1, Bcl-2-like protein 1. Kind of assay: Inhibition of Bcl-xL expressed in Saccharomyces cerevisiae.
For assay [3], the target named is T1, Bcl-2-like protein 1. Kind of assay: Inhibition of Bcl-xL.

Counter-ions that a name gives are not always drawn.

T1 sequence (Q07817 whole entry): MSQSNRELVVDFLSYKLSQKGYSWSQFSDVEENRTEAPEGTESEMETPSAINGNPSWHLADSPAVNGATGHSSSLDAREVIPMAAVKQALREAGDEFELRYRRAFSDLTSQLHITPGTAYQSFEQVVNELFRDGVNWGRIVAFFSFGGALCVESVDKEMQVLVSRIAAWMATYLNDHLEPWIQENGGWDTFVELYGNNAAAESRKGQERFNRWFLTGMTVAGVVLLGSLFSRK

For orientation: Kd means the constant that tells how readily two partners part at equilibrium. In the case of `Oc1ccccc1-c1ccccc1` [2-PHENYLPHENOL], the Kd on Bcl-2-like protein 1 [1] came out at 2700 µM. The IC50 is the point on the concentration scale where inhibition reaches its midpoint. A low value points to greater potency. Regarding `COC1=CC(c2cc3ccccc3[nH]2)=N/C1=C\c1[nH]c(C)cc1C` [OBATOCLAX MESYLATE], on Bcl-2-like protein 1 [2], inhibition was half-maximal at 4.69 µM (IC50).

Consider `Cc1cc2c(C(C)C)c(O)c(O)c(C=O)c2c(O)c1-c1c(C)cc2c(C(C)C)c(O)c(O)c(C=O)c2c1O` [GOSSYPOL], for which, on Bcl-2-like protein 1 [3], the IC50 was 0.48 µM.

For the origin of these results see ChEMBL document CHEMBL1157656, “Fragment-based deconstruction of Bcl-xL inhibitors” (J Med Chem, 2010).
